Source: patent US9718771B2, “Aniline derivative, pharmaceutical composition containing same, and use thereof” (Kissei Pharmaceutical Co., Ltd., priority 2014, dated 2017)

Columns and labels:
blood lymphocytes = test: Confirmation test for reduction effects on the number of lymphocytes; format: in vivo, Male Sprague-Dawley rats; conditions: rat, oral; for Number of lymphocytes (% of Vehicle) After 6 hours: 6 hours after administration; for Number of lymphocytes (% of Vehicle) After 24 hours: 24 hours after administration; for Number of lymphocytes (% of Vehicle) After 48 hours: 48 hours after administration
Protocol: Confirmation Test for Reduction Effects on the Number of Lymphocytes
Reduction effects on the number of blood lymphocytes by test compounds were confirmed using Male Sprague-Dawley rats (Japan SLC, 7-weeks-old in use). Administration solutions for test compounds were prepared on hot-plate at 50° C. After test compounds were dissolved by DMSO (dimethyl sulfoxide, Wako Pure Chemicals) of 1/10 volume of the total volume, WellSolve (Celeste) of 1/10 volume of the total volume was added to this solution. Further, distilled water (Otsuka Pharmaceutical Factory) of 8/10 volume of the total volume was added to this solution, and the administration solutions for test compounds were prepared. A solution, prepared in the same volume ratios of DMSO. WellSolve and distilled water as the administration solution for test compounds, was used as a solvent (Vehicle). Vehicle or test compound was administered orally to rats at 1 mL/body. After 6, 24 and 48 hours from administration of vehicle or test compounds, rats were held on the board at supine position under inhalation anesthesia with isoflurane (Abbott Japan). Blood samples (200 to 250 μL) were collected from the cervical vein of this rat using 1 mL syringes with needles of 25G. The collected blood samples were transferred to a microtube treated with EDTA-2K (Japan Becton Dickinson), and stored at room temperature after gently mixing with inversion. The number of lymphocytes was measured by ADVIA (registered mark) (Bayer), which is a multi-parameter automated blood cell counter using this blood samples. The average number of lymphocytes in vehicle-treated group (vehicle group) was defined as 100%, and the average number of lymphocytes in each test compound-treated group was calculated as % of vehicle. As Comparative Example 2, 1-{5-[1-(4-chloro-3-methyl-phenyl)-propylamino]-2-methyl-benzyl}-azetidine-3-carboxylic acid (patent literature 1, Example 4) was evaluated as well.

human S1P1 (EDG-1) = human S1P1 (EDG-1) (Homo sapiens (Human), UniProt P21453); test: Confirmation test of antagonistic activity for human S1P1 receptor (35S-GTP binding, cell membranes); format: biochemical; conditions: inhibition of 35S-GTP binding induced by S1P1 receptor selective agonist; HEK293 membranes expressing human S1P1
Chain of human S1P1 (EDG-1) (P21453 whole entry): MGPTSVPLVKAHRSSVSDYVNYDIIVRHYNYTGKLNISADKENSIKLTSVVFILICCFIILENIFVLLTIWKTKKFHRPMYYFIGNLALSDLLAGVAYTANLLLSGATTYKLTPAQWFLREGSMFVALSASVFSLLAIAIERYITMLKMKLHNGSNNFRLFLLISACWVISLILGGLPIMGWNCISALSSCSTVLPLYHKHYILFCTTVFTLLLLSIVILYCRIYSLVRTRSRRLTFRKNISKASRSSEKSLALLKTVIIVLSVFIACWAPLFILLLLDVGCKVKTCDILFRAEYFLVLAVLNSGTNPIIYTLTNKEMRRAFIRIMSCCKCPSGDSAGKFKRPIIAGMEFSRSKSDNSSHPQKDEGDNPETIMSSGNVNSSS
Protocol: Confirmation Test of Antagonistic Activity for Human S1P1 Receptor
Test compounds were tested by reduction of functional binding activity of ^35S-GTP (guanosine 5′-O-[gamma-thio] triphosphate, PerkinElmer) to G protein using cell membranes expressing human S1P1 (EDG-1). S1P1-pcDNA3.1/V5-His-Topo vector was prepared by inserting cDNA (NM_001400) encoding human S1P1 into the expression vector, pcDNA3.1/V5-His-Topo (registered trademark) (Invitrogen). Next, the above S1P1-pcDNA3.1 vector was transfected into HEK293 cells by Lipofectamine2000 (registered trademark) (Invitrogen). The transfected cells were incubated with D-MEM liquid medium each containing 10% FBS (Fetal bovine serum), 100 U/mL penicillin, 100 μg/mL streptomycin and 1 mg/mL Geneticin (registered trademark) (Invitrogen) in an incubator under the condition of 5% CO2 at 37° C. and Geneticin (registered mark)-resistant cell line stably expressing S1P1 were obtained. The obtained stably S1P1-expressing cells were incubated with D-MEM liquid medium each containing 10% FBS and 0.5 mg/mL Geneticin (registered trademark) in an incubator under the condition of 5% CO2 at 37° C. The cells grown to confluence were harvested by a buffer solution containing 50 mM Tris, 2 mM EDTA (ethylmediaminetetraacetic acid) and 125 mM sodium chloride, and centrifuged at 1880×g, 4° C. for 10 minutes. After a supernatant was removed, a cell pellet was resuspended by the same buffer solution. For making cell membranes fragile, this cell suspension was frozen at −80° C. and then thawed. The cells were centrifuged at 1880×g, 4° C. for 10 minutes, and a supernatant was removed. The cell pellet was suspended by adding the same buffer solution and a fracture solution (10 mM sodium bicarbonate and 5 mM EDTA, pH 7.5) at a ratio of 2:1. The cells were fractured by subjecting the cell suspension to ultrasonication, and a cell membrane fraction was isolated by centrifugation at 1880×g, 4° C. for 10 minutes and ultracentrifugation of the supernatant at 80000×g, 4° C. for 30 minutes. A pellet of the cell membrane fraction was suspended by the fracture solution containing protease inhibitor cocktail (Roche) and stored at −80° C. until use. A protein concentration of the cell membrane fraction was determined using BCA Protein Assay Kit (Pierce) in accordance with an attached protocol.
Inhibitory activity evaluation was performed by multi-screen (registered trademark) HTS 96-well plate (Millipore) using the cell membrane fraction stably expressing S1P1 obtained by the above operation. 25 μL of assay solution (50 mM Tris, 100 mM sodium chloride, 5 mM magnesium chloride, 1 mM EDTA, 1 mM DTT (dithiothreitol), 10 μM GDP (guanosine diphosphate) and 0.5% BSA (bovine serum albumin), pH 7.4), 25 μL of test compounds solution diluted by assay solution and 25 μL of the membrane fraction (0.2 μg protein/μL) were added to each well, and the mixture was gently shaken at room temperature: for 30 minutes. Then, 25 μL of ^35S-GTP, and 25 μL of 50 nM S1P1 receptor selective agonist (1-[4-(4-phenyl-5-trifluoromethylthiophen-2-ylmethoxy)benzyl]azetidine-3-carboxylic acid, “J. Med. Chem.”, 2004, vol. 47, pp. 6662-6665, compound 18) were added to each well, respectively, and it was reacted at room temperature for 60 minutes. After the reaction, a reaction solution of each well was suction-filtered. After suction filtration, ice-colded wash solution (50 mM Tris, 100 mM sodium chloride, […] and 1 mM EDTA, pH 7.4) was added to each well, and moreover filters were washed by suction filtration. This wash procedure was performed three times. A bottom of the plate containing the filters was dried at 60° C. After drying, 30 μL of MicroScinti-40 (PerkinElmer) was added to each well, and the radioactivity adsorbed on the filter was determined by TopCount NXT (registered trademark) (PerkinElmer) after shaking for 30 minutes at room temperature. […]

| IC50 (human S1P1 (EDG-1)) | SMILES | Number of lymphocytes (% of Vehicle) After 6 hours (blood lymphocytes; 1 mg/kg) | Number of lymphocytes (% of Vehicle) After 24 hours (blood lymphocytes; 1 mg/kg) | Number of lymphocytes (% of Vehicle) After 48 hours (blood lymphocytes; 1 mg/kg) | Number of lymphocytes (% of Vehicle) After 6 hours (blood lymphocytes; 10 mg/kg) | Number of lymphocytes (% of Vehicle) After 24 hours (blood lymphocytes; 10 mg/kg) | Number of lymphocytes (% of Vehicle) After 48 hours (blood lymphocytes; 10 mg/kg) |
| --- | --- | --- | --- | --- | --- | --- | --- |
| 1.2 nM | CCN(c1ccc(Cl)c(C(F)(F)F)c1)C(C)c1ccc(C)c(CN2CC(C(=O)O)C2)c1 (centres unmarked) [Compound 2-7, 1-(5-{1-[(4-Chloro-3-trifluoromethylphenyl)(ethyl)amino]ethyl}-2-methylbenzyl)-azetidine-3-carboxylic acid] | 15.0 % of Vehicle | 11.1 % of Vehicle | 66.8 % of Vehicle | 10.9 % of Vehicle | 10.6 % of Vehicle | 13.2 % of Vehicle |
| 1 nM | CCN(c1ccc(Cl)c(C)c1)C(C)c1ccc(C)c(CN2CC(C(=O)O)C2)c1 (centres unmarked) [Compound 2-6, 1-(5-{1-[(4-Chloro-3-methylphenyl)(ethyl)amino]ethyl}-2-methylbenzyl)azetidine-3-carboxylic acid] | – | – | – | 9.9 % of Vehicle | 14.1 % of Vehicle | 65.7 % of Vehicle |
